Measured values as given in patent US20130252983A1, “ACTIVATING PHOSPHORYLATION SITE ON GLUTAMINASE C” (CORNELL UNIVERSITY, priority 2010, published 2013).

Target: T1, GAC phosphorylation (Mus musculus, UniProt D3Z7P3)
T1 construct: expressed in transfected cells; host or cells: NIH 3T3 cells (stably expressing Dbl, or parental), transient transfection
T1 sequence (D3Z7P3 55-603 isoform D3Z7P3-2 limits assumed): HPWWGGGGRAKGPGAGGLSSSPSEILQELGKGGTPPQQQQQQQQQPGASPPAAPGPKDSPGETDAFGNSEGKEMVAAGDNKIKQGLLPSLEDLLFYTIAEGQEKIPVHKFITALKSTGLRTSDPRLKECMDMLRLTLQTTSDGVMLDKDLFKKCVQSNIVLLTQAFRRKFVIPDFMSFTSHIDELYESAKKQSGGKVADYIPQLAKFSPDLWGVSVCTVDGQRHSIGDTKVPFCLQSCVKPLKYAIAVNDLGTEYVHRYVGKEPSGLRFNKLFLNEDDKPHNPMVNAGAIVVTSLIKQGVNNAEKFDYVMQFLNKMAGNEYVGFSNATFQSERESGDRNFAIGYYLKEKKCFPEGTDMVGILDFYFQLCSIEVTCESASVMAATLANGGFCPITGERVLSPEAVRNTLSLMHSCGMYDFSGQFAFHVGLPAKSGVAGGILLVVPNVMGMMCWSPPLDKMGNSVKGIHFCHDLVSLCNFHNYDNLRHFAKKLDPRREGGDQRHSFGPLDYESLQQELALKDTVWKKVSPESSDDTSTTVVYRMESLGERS
Assay: 2-D gel analysis of V5-GAC phosphorylation states from treated Dbl cells
Assay type: cell-based
Settings: 968 10 μM, 48 hours
Experimental: NIH 3T3 cells stably expressing the Dbl oncogene, were transiently transfected with DNA encoding a VS-tagged GAC, and then one sample was treated with 968 (10 μM) for 48 hours. The cells were then harvested and the ectopically expressed GAC was isolated by immunoprecipitation via the V5 tag. The samples were then subjected to 2-D gel analysis to separate the V5-GAC by charge and size, and the V5-tagged GAC was visualized by Western blotting using an anti-V5 antibody.
GAC runs distinctly on a 2D gel depending whether it is expressed in normal (untransformed) NIH 3T3 cells or in NIH 3T3 cells which are transformed by the Dbl oncogene. Specifically, there is one major species of GAC present in NIH 3T3 cells whereas in Dbl cells, two additional species of GAC appear which migrate with a more negative charge but at the same molecular mass as the original species (FIG. 21, first and second panels). […] Additionally, it has been shown that small molecules of the 968 family which are able to inhibit GAC in vivo do so by blocking the ability of GAC to become phosphorylated. Thus, it was of great interest to identify the amino acid(s) on GAC whose phosphorylation is causal in the activation of this enzyme.

CN(C)c1ccc(C2Nc3ccc4ccccc4c3C3=C2C(=O)CC(C)(C)C3)cc1Br (stereo not shown) [Compound 968, 5-[3-bromo-4-(dimethylamino)phenyl]-2,2-dimethyl-2,3,5,6-tetrahydrobenzo[a]]
phosphorylation state of GAC: significant reduction of at least one phosphorylation state of GAC
